# Experimental data from ChEMBL document CHEMBL1124351, “Syntheses and bioevaluation of substituted dihydropyridines for pregnancy-interceptive activity in hamsters” (1989).
# Tests used:
# [1] = molecular target: T1, Progesterone receptor (Oryctolagus cuniculus) (UniProt P06186); assay: Percent inhibition of [3H]- progesterone binding to rabbit uterine progesterone receptor, at 10e-6 M compound concentration; details: at 1 µM
# T1 sequence (whole entry): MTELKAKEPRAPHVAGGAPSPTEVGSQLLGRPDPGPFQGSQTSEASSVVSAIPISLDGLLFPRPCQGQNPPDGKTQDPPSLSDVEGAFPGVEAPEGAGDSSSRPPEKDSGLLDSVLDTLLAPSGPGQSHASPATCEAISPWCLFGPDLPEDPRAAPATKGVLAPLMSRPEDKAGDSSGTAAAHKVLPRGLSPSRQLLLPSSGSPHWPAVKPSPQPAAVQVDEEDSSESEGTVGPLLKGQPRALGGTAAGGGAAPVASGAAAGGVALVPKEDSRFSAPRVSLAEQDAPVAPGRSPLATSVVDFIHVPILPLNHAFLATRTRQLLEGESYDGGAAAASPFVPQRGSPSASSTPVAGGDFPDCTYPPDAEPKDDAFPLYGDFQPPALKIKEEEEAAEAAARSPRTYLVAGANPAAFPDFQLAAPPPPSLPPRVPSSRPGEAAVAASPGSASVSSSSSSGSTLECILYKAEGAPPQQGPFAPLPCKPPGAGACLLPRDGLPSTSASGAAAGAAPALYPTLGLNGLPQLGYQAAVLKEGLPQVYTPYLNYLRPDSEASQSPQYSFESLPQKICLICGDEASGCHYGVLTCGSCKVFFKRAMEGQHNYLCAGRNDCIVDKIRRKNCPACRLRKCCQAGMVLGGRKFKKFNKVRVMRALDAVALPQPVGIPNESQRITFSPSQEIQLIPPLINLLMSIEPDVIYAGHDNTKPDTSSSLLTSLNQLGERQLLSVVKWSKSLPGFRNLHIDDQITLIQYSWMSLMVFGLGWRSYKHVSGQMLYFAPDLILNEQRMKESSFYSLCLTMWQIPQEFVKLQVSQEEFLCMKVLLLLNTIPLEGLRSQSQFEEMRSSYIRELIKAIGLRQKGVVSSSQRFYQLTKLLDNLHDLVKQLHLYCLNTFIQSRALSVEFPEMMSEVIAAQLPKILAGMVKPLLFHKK
# [2] = molecular target: T1, Progesterone receptor (Oryctolagus cuniculus); assay: Percent inhibition of [3H]- progesterone binding to rabbit uterine progesterone receptor, at 10e-5 M compound concentration; details: at 10 µM
# Cricetinae gen. sp. [3] = assay: Activity against pregnancy-interceptive activity in Syrian golden hamsters, when administered, at a dose of 6.98 mmol/kg; type: functional
# [4] = system: Progesterone receptor (Mesocricetus auratus); assay: Percent inhibition of [3H]- progesterone binding to Syrian golden hamster uterine cytosol progesterone receptor, at 10e-9 M compound concentration; details: at 0.001 µM
# [5] = system: Progesterone receptor (Mesocricetus auratus); assay: Percent inhibition of [3H]- progesterone binding to Syrian golden hamster uterine cytosol progesterone receptor, at 10e-5 M compound concentration; details: at 10 µM
# [6] = system: Progesterone receptor (Mesocricetus auratus); assay: Percent inhibition of [3H]- progesterone binding to Syrian golden hamster uterine cytosol progesterone receptor, at 10e-6 M compound concentration; details: at 1 µM
# [7] = molecular target: T1, Progesterone receptor (Oryctolagus cuniculus); assay: Percent inhibition of [3H]- progesterone binding to rabbit uterine progesterone receptor, at 10e-9 M compound concentration; details: at 0.001 µM
# Cricetinae gen. sp. [8] = assay: Activity against pregnancy-interceptive activity in Syrian golden hamsters, when administered, at a dose of 14.62 mmol/kg; type: functional
# [9] = system: Progesterone receptor (Mesocricetus auratus); assay: Percent inhibition of [3H]- progesterone binding to Syrian golden hamster uterine cytosol progesterone receptor, at 10e-8 M compound concentration; details: at 0.01 µM
# [10] = molecular target: T1, Progesterone receptor (Oryctolagus cuniculus); assay: Percent inhibition of [3H]- progesterone binding to rabbit uterine progesterone receptor, at 10e-7 M compound concentration; details: at 0.1 µM
# [11] = system: Progesterone receptor (Mesocricetus auratus); assay: Percent inhibition of [3H]- progesterone binding to Syrian golden hamster uterine cytosol progesterone receptor, at 10e-7 M compound concentration; details: at 0.1 µM
# [12] = molecular target: T1, Progesterone receptor (Oryctolagus cuniculus); assay: Percent inhibition of [3H]- progesterone binding to rabbit uterine progesterone receptor, at 10e-8 M compound concentration; details: at 0.01 µM
# [13] = molecular target: T1, Progesterone receptor (Oryctolagus cuniculus); assay: Percent inhibition of [3H]- progesterone binding to rabbit uterine progesterone receptor at 10e-7 M
# Cricetinae gen. sp. [14] = assay: Activity against pregnancy-interceptive activity in Syrian golden hamsters, when administered, at a dose of 7.83 mmol/kg; type: functional
# Cricetinae gen. sp. [15] = assay: Activity against pregnancy-interceptive activity in Syrian golden hamsters, when administered, at a dose of 15.11 mmol/kg; type: functional
# Cricetinae gen. sp. [16] = assay: Activity against pregnancy-interceptive activity in Syrian golden hamsters, when administered, at a dose of 13.15 mmol/kg; type: functional
# Cricetinae gen. sp. [17] = assay: Activity against pregnancy-interceptive activity in Syrian golden hamsters, when administered, at a dose of 6.66 mmol/kg; type: functional
# Cricetinae gen. sp. [18] = assay: Activity against pregnancy-interceptive activity in Syrian golden hamsters, when administered, at a dose of 6.70 mmol/kg; type: functional
# Cricetinae gen. sp. [19] = assay: Activity against pregnancy-interceptive activity in Syrian golden hamsters, when administered, at a dose of 12.08 mmol/kg; type: functional
# Cricetinae gen. sp. [20] = assay: Activity against pregnancy-interceptive activity in Syrian golden hamsters, when administered, at a dose of 15.20 mmol/kg; type: functional
# Cricetinae gen. sp. [21] = assay: Activity against pregnancy-interceptive activity in Syrian golden hamsters, when administered, at a dose of 4.95 mmol/kg; type: functional
# Cricetinae gen. sp. [22] = assay: Activity against pregnancy-interceptive activity in Syrian golden hamsters, when administered, at a dose of 5.54 mmol/kg; type: functional
# Cricetinae gen. sp. [23] = assay: Activity against pregnancy-interceptive activity in Syrian golden hamsters, when administered, at a dose of 8.82 mmol/kg; type: functional
# Cricetinae gen. sp. [24] = assay: Activity against pregnancy-interceptive activity in Syrian golden hamsters, when administered, at a dose of 8.35 mmol/kg; type: functional, Cricetulus griseus
# Cricetinae gen. sp. [25] = assay: Activity against pregnancy-interceptive activity in Syrian golden hamsters, when administered, at a dose of 19.43 mmol/kg; type: functional
# Cricetinae gen. sp. [26] = assay: Activity against pregnancy-interceptive activity in Syrian golden hamsters, when administered, at a dose of 6.96 mmol/kg; type: functional
# Cricetinae gen. sp. [27] = assay: Activity against pregnancy-interceptive activity in Syrian golden hamsters, when administered, at a dose of 6.36 mmol/kg; type: functional, Cricetulus griseus
# Cricetinae gen. sp. [28] = assay: Activity against pregnancy-interceptive activity in Syrian golden hamsters, when administered, at a dose of 5.64 mmol/kg; type: functional
inhibition [1] [%],inhibition [2] [%],inhibition [4] [%],inhibition [5] [%],inhibition [6] [%],inhibition [7] [%],inhibition [9] [%],inhibition [10] [%],inhibition [11] [%],inhibition [12] [%],SMILES,also measured
18,15,–,–,–,–,–,–,–,–,COC(=O)C1=C(C)N=C(C)/C(=C(\O)OC)C1c1ccc(NC(C)=O)cc1 (centres undefined),Activity (Cricetinae gen. sp. [3]): 0.66
20,22,9,26,18,10,12,12,16,8,COC(=O)C1=C(C)N=C(C)/C(=C(/O)OC)C1c1ccc2[nH]nnc2c1 (centres undefined),Activity (Cricetinae gen. sp. [8]): 5.2
18,23,8,18,15,10,12,–,15,11,COC(=O)C1=C(C)N=C(C)/C(=C(\O)OC)C1c1cc(C(=O)c2ccc(C)cc2)c(OC)cc1OC (centres undefined),inhibition [13]: 15%; Activity (Cricetinae gen. sp. [14]): 6
10,18,2,24,14,0,5,5,10,0,COC(=O)C1=C(C)N=C(C)/C(=C(/O)OC)C1c1ccc(Cl)c([N+](=O)[O-])c1 (centres undefined),Activity (Cricetinae gen. sp. [16]): 2.6
10,14,4,12,13,5,4,10,10,8,CNc1ccc(C2C(C(=O)OC)=C(C)N=C(C)/C2=C(/O)OC)cc1[N+](=O)[O-] (centres undefined),Activity (Cricetinae gen. sp. [17]): 6.8
10,15,0,12,10,3,9,8,5,4,COC(=O)C1=C(C)N=C(C)/C(=C(/O)OC)C1c1ccc(C=O)cc1 (centres undefined),Activity (Cricetinae gen. sp. [20]): 5.15
16,20,10,24,20,2,12,10,15,6,COC(=O)C1=C(C)N=C(C)/C(=C(/O)OC)C1c1ccc2nc(-c3ccc(OC)cc3)n(Cc3ccc(OC)cc3)c2c1 (centres undefined),Activity (Cricetinae gen. sp. [23]): 6
16,17,6,14,14,8,10,10,11,11,COC(=O)C1=C(C)N=C(C)/C(=C(/O)OC)C1c1cc2ccccc2nc1Cl (centres undefined),Activity (Cricetinae gen. sp. [25]): 3
15,25,10,40,32,0,10,–,27,0,COC(=O)C1=C(C)N=C(C)/C(=C(\O)OC)C1c1ccc(C(=O)OC)cc1 (centres undefined),Activity (Cricetinae gen. sp. [26]): 0.72; inhibition [13]: 20%

# Continued, molecule first:
SMILES,inhibition [1] [%],inhibition [2] [%],inhibition [4] [%],inhibition [5] [%],inhibition [6] [%],inhibition [7] [%],inhibition [9] [%],inhibition [10] [%],inhibition [11] [%],inhibition [12] [%],also measured
COC(=O)C1=C(C)N=C(C)/C(=C(/O)OC)C1c1ccc(N)c(N)c1 (centres undefined),15,21,0,18,14,13,0,16,9,10,Activity (Cricetinae gen. sp. [15]): 2.3
COC(=O)C1=C(C)N=C(C)/C(=C(/O)OC)C1c1ccc2[nH]c(S)nc2c1 (centres undefined),18,20,9,30,26,0,10,15,18,10,Activity (Cricetinae gen. sp. [18]): 5
COC(=O)Nc1nc2cc(C3C(C(=O)OC)=C(C)N=C(C)/C3=C(/O)OC)ccc2[nH]1 (centres undefined),16,20,0,28,15,5,10,16,16,5,Activity (Cricetinae gen. sp. [19]): 1.5
COC(=O)C1=C(C)N=C(C)/C(=C(/O)OC)C1c1ccc2nc(-c3ccccc3)c(-c3ccccc3)nc2c1 (centres undefined),18,16,6,18,15,2,9,10,12,2,Activity (Cricetinae gen. sp. [21]): 4.6
COC(=O)C1=C(C)N=C(C)/C(=C(/O)OC)C1c1ccc(NCc2ccccc2)c([N+](=O)[O-])c1 (centres undefined),10,12,0,10,6,0,0,0,4,10,Activity (Cricetinae gen. sp. [22]): 2.5
COC(=O)C1=C(C)N=C(C)/C(=C(/O)OC)C1c1ccc2nc(-c3ccc(O)c(OC)c3)n(Cc3ccc(O)c(OC)c3)c2c1 (centres undefined),15,20,3,18,18,5,5,15,12,8,Activity (Cricetinae gen. sp. [24]): 1.2
COC(=O)C1=C(C)N=C(C)/C(=C(/O)OC)C1c1cc2ccccc2n2nnnc12 (centres undefined),8,14,0,10,9,0,8,12,10,10,Activity (Cricetinae gen. sp. [27]): 2.5
COC(=O)C1=C(C)N=C(C)/C(=C(/O)OC)C1c1ccc2nc3n(c2c1)C(=O)c1ccccc1-3 (centres undefined),15,15,6,16,10,0,9,0,8,0,Activity (Cricetinae gen. sp. [28]): 3.8
